Assay results as given in patent publication US6548085B1, “Insecticidal compositions and method of controlling insect pests using same” (Woodstream Corporation, priority 1998, dated 2003).

Legend:
Assay type in all cases: in vivo
American cockroaches = assay: Direct spray kill time test on American cockroaches; details: aqueous solution, sprayed 3 seconds, entry of 300 = no deaths during that time
From the text: (§1) To determine the effectiveness of an essential oil/sodium lauryl sulfate aerosol spray according to this invention as an insecticide when applied directly by a conventional pump spray on German cockroaches, American cockroaches and various ant species.
(§2) Insects shall be healthy and undeformed. Only adult male and female insects shall be used for testing purposes. The insects shall be contained in a 21.5×15.5×5.5 inch testing arena.
(§3) 1. Gather 10 adult insects, 5 males and 5 females.
(§4) 2. Place 1 insect into the testing arena.
(§5) 3. Select spray to be tested. Spray cockroaches for 3 seconds, ants for 2 seconds.
(§6) 4. Record kill time in seconds.
(§7) 5. Wipe away any spray residue before beginning another test.
(§8) 6. Repeat steps 2, 3, 4 and 5 until all test insects are used.
(§9) 7. Record date of testing, type of test material used, type of insect used, kill time in seconds, and whether or not test specimen meets standard.
(§10) Following this protocol, aqueous solutions of selected essential oils were prepared at different concentrations, both with and without the addition of sodium lauryl sulfate, and tested for their insecticidal activity (kill time in seconds) against German and American cockroaches and black or pavement ants. The results are tabulated below and illustrated graphically in the accompanying drawings.
(§11) ^3 The tests shown in the Tables utilized the active ingredients in an aqueous solution dispensed from a standard pump-type sprayer. Shorter kill times result when the insecticide is aerosolized, i.e., dispensed from a pressurized aerosol can using a propellant such as carbon dioxide.

German cockroaches = assay: Direct spray kill time test on German cockroaches; details: aqueous solution, sprayed 3 seconds, entry of 300 = no deaths during that time
From the text: as §1, §2, §3, §4, §5, §6, §7, §8, §9, §10, §11

Black Ants = assay: Direct spray kill time test on black ants; details: aqueous solution, sprayed 2 seconds, entry of 300 = no deaths during that time
From the text: as §1, §2, §3, §4, §5, §6, §7, §8, §9, §10, §11

Pavement Ants = assay: Direct spray kill time test on pavement ants; details: aqueous solution, pump sprayer, sprayed 2 seconds, entry of 300 = no deaths during that time
From the text: as §1, §2, §3, §4, §5, §6, §7, §8, §9, §10, §11

[1] = cinnamon oil series, pump sprayer
[2] = citronella oil series, pump sprayer
[3] = cornmint oil series, standard pump-type sprayer
[4] = grapefruit oil series, pump sprayer
[5] = orange sweet oil series, pump sprayer
[6] = peppermint oil series, pump sprayer
[7] = tangerine oil series, pump sprayer

CCCCCCCCCCCCOS(=O)(=O)[O-].[Na+] [100% SLS, sodium lauryl sulfate]
Kill Time (American cockroaches; [1]): > 300 s
Kill Time (American cockroaches; [2]): > 300 s
Kill Time (American cockroaches; [3]): > 300 s
Kill Time (American cockroaches; [4]): > 300 s
Kill Time (American cockroaches; lemon oil series, pump sprayer): > 300 s
Kill Time (American cockroaches; lime oil series, pump sprayer): > 300 s
Kill Time (American cockroaches; [5]): > 300 s
Kill Time (American cockroaches; [6]): > 300 s
Kill Time (American cockroaches; [7]): > 300 s
Kill Time (German cockroaches; [1]): > 300 s
Kill Time (German cockroaches; [2]): > 300 s
Kill Time (German cockroaches; [3]): > 300^1 Seconds
Kill Time (German cockroaches; [4]): > 300 s
Kill Time (German cockroaches; lemon oil series, pump sprayer): > 300 s
Kill Time (German cockroaches; lime oil series, pump sprayer): > 300 s
Kill Time (German cockroaches; orange sweet oil series, pump sprayer, repetitions of 10% OSO mixture not performed): > 300 s
Kill Time (German cockroaches; [6]): > 300 s
Kill Time (German cockroaches; [7]): > 300 s
Kill Time (Black Ants; [1]): > 300 s
Kill Time (Black Ants; [3]): > 300 s
Kill Time (Black Ants; [5]): > 300 s
Kill Time (Pavement Ants; citronella oil series): > 300 s
Kill Time (Pavement Ants; grapefruit oil series): > 300 s
Kill Time (Pavement Ants; lemon oil series): > 300 s
Kill Time (Pavement Ants; lime oil series): > 300 s
Kill Time (Pavement Ants; peppermint oil series): > 300 s
Kill Time (Pavement Ants; tangerine oil series): > 300 s
